Test results: patent US10890591B2, “Methods and dose packs for monitoring medication adherence” (Synapse Biosciences, LLC, priority 2016, dated 2021)

Experiments:
clinical [1] = settings: human, in vivo
From the text: (§1) All other markers were obtained from commercial sources. Urine and saliva were collected prior to each day's dosing of marker confirming the presence or absence of markers before the experiment started. […] The presence of all 7 markers at day 8 would confirm that all markers were ingested in the previous 7 day one week period.
(§2) Healthy volunteers with no recent exposure to the markers who were not currently taking prescribed medications, OTC medications or vitamins and supplements were chosen. Exposure to the markers more than one month before starting the experiment was allowed and no dietary restrictions were required. Subjects were given a 7 day blister pack with markers sequenced in the order above. Subjects verbally confirmed they understood the urine and saliva collection procedures. Instructions printed on the marker blister pack instructed subjects to collect urine and saliva each morning before they took the daily dose of marker. They were also instructed to take the daily dose of marker close to the same time each day.

clinical [2] = settings: human, in vivo; remark: listed apart in the source
From the text: as §1, §2

CNC(=C[N+](=O)[O-])NCCSCc1ccc(CN(C)C)o1 [Ranitidine]
Subject C, Urine Results (clinical [1]; 1 day): 0 ng/m | Subject D, Urine Results (clinical [1]; 1 day): 0 ng/m | Subject C, Urine Results (clinical [1]; 2 day): 4930 ng/m | Subject D, Urine Results (clinical [1]; 2 day): 4910 ng/m | Subject C, Urine Results (clinical [1]; 3 day): 492 ng/m | Subject D, Urine Results (clinical [1]; 3 day): 300 ng/m | Subject C, Urine Results (clinical [1]; 4 day): 68.3 ng/m | Subject D, Urine Results (clinical [1]; 4 day): 51.5 ng/m | Subject C, Urine Results (clinical [1]; 5 day): 41.9 ng/m | Subject D, Urine Results (clinical [1]; 5 day): 39.4 ng/m | Subject C, Urine Results (clinical [1]; 6 day): 39.6 ng/m | Subject D, Urine Results (clinical [1]; 6 day): 22.6 ng/m | Subject C, Urine Results (clinical [1]; 7 day): 25.2 ng/m | Subject D, Urine Results (clinical [1]; 7 day): 14 ng/m | Subject C, Urine Results (clinical [1]; 8 day): 23.5 ng/m | Subject D, Urine Results (clinical [1]; 8 day): 12.1 ng/m | concentration at 1 day (clinical [1]; Average of Urine Samples): 0 ng/mL | concentration at 2 day (clinical [1]; Average of Urine Samples): 3720 ng/mL | concentration at 3 day (clinical [1]; Average of Urine Samples): 351 ng/mL | concentration at 4 day (clinical [1]; Average of Urine Samples): 56.5 ng/mL | concentration at 5 day (clinical [1]; Average of Urine Samples): 40.7 ng/mL | concentration at 6 day (clinical [1]; Average of Urine Samples): 34.3 ng/mL | concentration at 7 day (clinical [1]; Average of Urine Samples): 13.9 ng/mL | concentration at 8 day (clinical [1]; Average of Urine Samples): 10.4 ng/mL | concentration at 1 day (clinical [1]; Subject A, Urine Results): 0 ng/mL | concentration at 2 day (clinical [1]; Subject A, Urine Results): 801 ng/mL | concentration at 3 day (clinical [1]; Subject A, Urine Results): 156 ng/mL | concentration at 4 day (clinical [1]; Subject A, Urine Results): 63.4 ng/mL | concentration at 5 day (clinical [1]; Subject A, Urine Results): 61.8 ng/mL | concentration at 6 day (clinical [1]; Subject A, Urine Results): 58.5 ng/mL | concentration at 7 day (clinical [1]; Subject A, Urine Results): 11.2 ng/mL | concentration at 8 day (clinical [1]; Subject A, Urine Results): 1.16 ng/mL | concentration at 1 day (clinical [1]; Subject B, Urine Results): 0 ng/mL | concentration at 3 day (clinical [1]; Subject B, Urine Results): 456 ng/mL | concentration at 1 day (clinical [2]): 0 ng/mL | concentration at 2 day (clinical [2]): 16.8 ng/mL | concentration at 3 day (clinical [2]): 1.56 ng/mL | concentration at 4 day (clinical [2]): 0.562 ng/mL | concentration at 5 day (clinical [2]): 0.366 ng/mL | concentration at 6 day (clinical [2]): 0.176 ng/mL | concentration at 7 day (clinical [2]): 0.0757 ng/mL | concentration at 8 day (clinical [2]): 0.048 ng/mL

Cc1cc2nc3c(=O)[nH]c(=O)nc-3n(C[C@H](O)[C@H](O)[C@H](O)CO)c2cc1C [Riboflavin]
Subject C, Urine Results (clinical [1]; 1 day): 1210 ng/m | Subject D, Urine Results (clinical [1]; 1 day): 819 ng/m | Subject C, Urine Results (clinical [1]; 2 day): 4940 ng/m | Subject D, Urine Results (clinical [1]; 2 day): 1290 ng/m | Subject C, Urine Results (clinical [1]; 3 day): 3150 ng/m | Subject D, Urine Results (clinical [1]; 3 day): 5190 ng/m | Subject C, Urine Results (clinical [1]; 4 day): 3150 ng/m | Subject D, Urine Results (clinical [1]; 4 day): 4330 ng/m | Subject C, Urine Results (clinical [1]; 5 day): 1230 ng/m | Subject D, Urine Results (clinical [1]; 5 day): 1730 ng/m | Subject C, Urine Results (clinical [1]; 6 day): 1680 ng/m | Subject D, Urine Results (clinical [1]; 6 day): 2120 ng/m | Subject C, Urine Results (clinical [1]; 7 day): 4450 ng/m | Subject D, Urine Results (clinical [1]; 7 day): 3200 ng/m | Subject C, Urine Results (clinical [1]; 8 day): 9920 ng/m | Subject D, Urine Results (clinical [1]; 8 day): 3310 ng/m | concentration at 1 day (clinical [1]; Average of Urine Samples): 2240 ng/mL | concentration at 2 day (clinical [1]; Average of Urine Samples): 2490 ng/mL | concentration at 3 day (clinical [1]; Average of Urine Samples): 2960 ng/mL | concentration at 4 day (clinical [1]; Average of Urine Samples): 5130 ng/mL | concentration at 5 day (clinical [1]; Average of Urine Samples): 2110 ng/mL | concentration at 6 day (clinical [1]; Average of Urine Samples): 2270 ng/mL | concentration at 7 day (clinical [1]; Average of Urine Samples): 3100 ng/mL | concentration at 8 day (clinical [1]; Average of Urine Samples): 5710 ng/mL | concentration at 3 day (clinical [1]; Subject B, Urine Results): 3040 ng/mL | concentration at 1 day (clinical [2]): 85.5 ng/mL | concentration at 2 day (clinical [2]): 92 ng/mL | concentration at 3 day (clinical [2]): 58.2 ng/mL | concentration at 4 day (clinical [2]): 45.5 ng/mL | concentration at 5 day (clinical [2]): 37.3 ng/mL | concentration at 6 day (clinical [2]): 85.5 ng/mL | concentration at 7 day (clinical [2]): 40.8 ng/mL | concentration at 8 day (clinical [2]): 43.1 ng/mL
